Assay results from US11439641B2, “Pyrimidine JAK inhibitors for the treatment of skin diseases” (THERAVANCE BIOPHARMA R&D IP, LLC, priority 2019, dated 2022).

How the values were obtained:
JAK3 = JAK3 (Homo sapiens (Human), UniProt P52333); assay: Biochemical JAK and Tyk2 Kinase Assays (LanthaScreen), JAK3; conditions: 1.6 μM ATP (Km); pIC50 converted to pKi by Cheng-Prusoff
[1] = Human Liver Microsome Assay; conditions: human liver microsomes 0.1 mg/mL, 0.1 μM compound, 1 mM NADPH, 37° C.
Procedure: Assay 4: Human Liver Microsome Assay
The objective of this assay was to assess the metabolic stability of test compounds in an in vitro human liver sub-fraction. Human liver microsomes obtained from Bioreclamation-IVT (Baltimore, Md.) were thawed on ice and diluted into 0.1 M potassium phosphate buffer pH 7.4 to yield final incubation protein concentrations of 0.1 mg/mL. Test compounds (10 mM) were diluted into NADPH cofactor to yield final incubation concentrations of 0.1 μM test compound and 1 mM NADPH. Incubations were conducted at 37° C. temperature and test aliquots were taken at time points 0, 5, 8, 15, 30 and 45 minutes. Each aliquot was crashed into water with 3% formic acid and 1 μM internal standard. The resulting samples were injected onto an LC-MS/MS system for analysis.
For each incubation, the peak area of the analytes in each t0 aliquot was set to 100% and the peak areas from subsequent time point aliquots were converted to percentage of parent compound remaining relative to t0. The percentage of parent compound remaining was converted to natural log scale and plotted versus time in minutes. A linear regression analysis was performed for the initial decline of the parent disappearance profile and a formula for the best-fit line determined. The slope of the resultant line was normalized to protein concentration in mg/mL protein or number of cells/mL and CLint was calculated as follows for liver microsomes: CLint(μL·min^−1·mg^−1)=(Slope×1000)/[protein,mg/mL]
CLint values from 9-49 μl/min/mg represent moderate clearance (i.e. 30-70% of hepatic blood flow in human) and values >50 μl/min/mg represent high hepatic clearance (i.e. >70% of hepatic blood flow in human).

Aqueous Solubility Assay = conditions: PBS buffer pH 7.4; maximum upper limit 1,000 μM
Procedure: Assay 5: Aqueous Solubility Assay
The purpose of this assay was to quantify the solubility of test compounds in pH 4 and pH 7.4 PBS buffers. The assay required 40 μL of 10 mM DMSO test compound solution per desired buffer in addition to 20 μL required to make a test standard. For example, to test a compound in both buffers, 100 μL (2*40 μL+20 μL) of 10 mM DMSO compound stock solution was required.
The standard was created by diluting 20 μL of 10 mM DMSO compound stock solution into 180 μL of methanol and was shaken for five minutes to ensure solution uniformity. […] This 1,000 μM solution was run on an Agilent 1260 LC-MS system by injecting 2 μL in order to obtain the peak area. For the test solutions, 40 μL of 10 mM DMSO compound stock solution, per PBS buffer condition, were dried down into a powder overnight. Once in powder form, 400 μL of the desired PBS buffer was added to the powder and allowed to shake vigorously for four hours. The maximum theoretical concentration for this sample solution was 1,000 μM. After four hours of shaking, the samples were centrifuged for 10 minutes at 3,000 RPM before injecting 2 μL on the same Agilent 1260 LC-MS system to obtain the peak area.
In Table 6 below, A represents a value above 500, B represents a value between 250 and 500, C represents a value between 50 and 250, D represents a value between 10 and 50, and E represents a value below 10.

JAK1 = JAK1 (Homo sapiens (Human), UniProt P23458); assay: Biochemical JAK and Tyk2 Kinase Assays (LanthaScreen), JAK1; conditions: 25 μM ATP (Km); pIC50 converted to pKi by Cheng-Prusoff
[2] = system: IL-2 stimulated pSTAT5 in Tall-1 T cells; assay: Inhibition of IL-2 Stimulated pSTAT5 in Tall-1 T Cells; format: cell-based; conditions: Tall-1 human T cell line, IL-2 300 ng/mL, AlphaLisa
Summary of the method: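 Cells preincubated with compound 1 hour at 37° C, then stimulated with IL-2 (final 300 ng/mL) for 30 minutes. After lysis, pSTAT5 (Tyr694/699) read by AlphaLISA luminescence. IC50 from inhibition curves, reported as pIC50 (mean±SD).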

Caco-2 cell monolayer = assay: Caco-2 Permeation Assay; format: in vitro ADME; conditions: Papp, 5 μM compound; for Cacoverap Kp 10^−6 cm/sec: A→B in the presence of 25 μM verapamil (P-gp inhibitor); for Caco Kp 10^−6 cm/sec: apical to basal (A→B)
Summary of the method: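 Compound at 5 μM, in duplicate, crosses Caco-2 monolayers apical to basal over 120 min at 37 °C. This is run with and without 25 μM verapamil to test for P-gp efflux. Samples are quantified by LC-MS/MS, and Papp in cm/sec is calculated as dQ/(dt × area × concentration).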

[3] = Solubility Assay in Organic Excipients; conditions: maximum upper limit 20,000 μM
Tyk2 = Tyk2 (Homo sapiens (Human), UniProt P29597); assay: Biochemical JAK and Tyk2 Kinase Assays (LanthaScreen), Tyk2; conditions: 10 μM ATP (Km); pIC50 converted to pKi by Cheng-Prusoff
Procedure: (§1) Assay 1: Biochemical JAK and Tyk2 Kinase Assays
(§2) A panel of four LanthaScreen JAK biochemical assays (JAK1, 2, 3 and Tyk2) were carried in a common kinase reaction buffer (50 mM HEPES, pH 7.5, 0.01% Brij-35, 10 mM MgCl2, and 1 mM EGTA). Recombinant GST-tagged JAK enzymes and a GFP-tagged STAT1 peptide substrate were obtained from Life Technologies.
(§3) Serially or discretely diluted compounds were pre-incubated with each of the four JAK enzymes and the substrate in white 384-well microplates (Corning) at ambient temperature for 1 h. ATP was subsequently added to initiate the kinase reactions in 10 μL total volume, with 1% DMSO. The final enzyme concentrations for JAK1, 2, 3 and Tyk2 are 4.2 nM, 0.1 nM, 1 nM, and 0.25 nM respectively; the corresponding Km ATP concentrations used are 25 μM, 3 μM, 1.6 μM, and 10 μM; while the substrate concentration is 200 nM for all four assays. Kinase reactions were allowed to proceed for 1 hour at ambient temperature before a 10 μL preparation of EDTA (10 mM final concentration) and Tb-anti-pSTAT1 (pTyr701) antibody (Life Technologies, 2 nM final concentration) in TR-FRET dilution buffer (Life Technologies) was added. The plates were allowed to incubate at ambient temperature for 1 h before being read on the EnVision reader (Perkin Elmer). Emission ratio signals (520 nm/495 nm) were recorded and utilized to calculate the percent inhibition values based on DMSO and background controls.
(§4) For dose-response analysis, percent inhibition data were plotted vs. compound concentrations, and IC50 values were determined from a 4-parameter robust fit model with the Prism software (GraphPad Software). Results were expressed as pIC50 (negative logarithm of IC50) and subsequently converted to pKi (negative logarithm of dissociation constant, Ki) using the Cheng-Prusoff equation.

JAK2 = JAK2 (Homo sapiens (Human), UniProt O60674); assay: Biochemical JAK and Tyk2 Kinase Assays (LanthaScreen), JAK2; conditions: 3 μM ATP (Km); pIC50 converted to pKi by Cheng-Prusoff
Procedure: as §1, §2, §3, §4

Chain of JAK1 (P23458 whole entry): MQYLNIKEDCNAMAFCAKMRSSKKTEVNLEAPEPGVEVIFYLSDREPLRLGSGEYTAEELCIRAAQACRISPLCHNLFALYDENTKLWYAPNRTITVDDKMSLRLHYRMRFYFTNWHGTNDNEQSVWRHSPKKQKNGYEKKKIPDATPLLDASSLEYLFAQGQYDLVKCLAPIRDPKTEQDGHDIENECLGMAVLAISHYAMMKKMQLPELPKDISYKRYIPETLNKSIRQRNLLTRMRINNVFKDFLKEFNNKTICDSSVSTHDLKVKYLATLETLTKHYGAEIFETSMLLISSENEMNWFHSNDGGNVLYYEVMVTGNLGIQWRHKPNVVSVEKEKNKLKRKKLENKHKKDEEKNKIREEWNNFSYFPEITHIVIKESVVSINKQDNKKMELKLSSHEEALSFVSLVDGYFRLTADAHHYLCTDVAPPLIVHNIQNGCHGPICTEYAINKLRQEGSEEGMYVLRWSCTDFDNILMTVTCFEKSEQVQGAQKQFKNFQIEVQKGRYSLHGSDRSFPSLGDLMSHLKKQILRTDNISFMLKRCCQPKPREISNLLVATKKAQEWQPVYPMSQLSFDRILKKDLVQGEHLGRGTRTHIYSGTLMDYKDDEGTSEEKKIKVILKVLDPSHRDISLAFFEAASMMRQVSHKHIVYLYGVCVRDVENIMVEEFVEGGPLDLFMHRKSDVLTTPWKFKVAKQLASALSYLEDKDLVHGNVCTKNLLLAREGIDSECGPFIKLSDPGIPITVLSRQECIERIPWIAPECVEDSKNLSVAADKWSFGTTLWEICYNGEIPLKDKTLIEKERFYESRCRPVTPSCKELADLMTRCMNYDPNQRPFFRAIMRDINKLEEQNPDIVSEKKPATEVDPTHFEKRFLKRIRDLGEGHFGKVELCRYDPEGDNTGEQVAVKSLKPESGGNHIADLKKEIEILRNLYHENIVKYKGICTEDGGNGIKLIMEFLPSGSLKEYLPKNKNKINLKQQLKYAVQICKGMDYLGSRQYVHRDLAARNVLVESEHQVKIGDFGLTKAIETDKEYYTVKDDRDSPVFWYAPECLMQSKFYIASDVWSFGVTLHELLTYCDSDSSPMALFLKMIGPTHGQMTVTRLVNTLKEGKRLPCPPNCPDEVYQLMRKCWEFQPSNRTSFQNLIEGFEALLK
Chain of JAK3 (P52333 whole entry): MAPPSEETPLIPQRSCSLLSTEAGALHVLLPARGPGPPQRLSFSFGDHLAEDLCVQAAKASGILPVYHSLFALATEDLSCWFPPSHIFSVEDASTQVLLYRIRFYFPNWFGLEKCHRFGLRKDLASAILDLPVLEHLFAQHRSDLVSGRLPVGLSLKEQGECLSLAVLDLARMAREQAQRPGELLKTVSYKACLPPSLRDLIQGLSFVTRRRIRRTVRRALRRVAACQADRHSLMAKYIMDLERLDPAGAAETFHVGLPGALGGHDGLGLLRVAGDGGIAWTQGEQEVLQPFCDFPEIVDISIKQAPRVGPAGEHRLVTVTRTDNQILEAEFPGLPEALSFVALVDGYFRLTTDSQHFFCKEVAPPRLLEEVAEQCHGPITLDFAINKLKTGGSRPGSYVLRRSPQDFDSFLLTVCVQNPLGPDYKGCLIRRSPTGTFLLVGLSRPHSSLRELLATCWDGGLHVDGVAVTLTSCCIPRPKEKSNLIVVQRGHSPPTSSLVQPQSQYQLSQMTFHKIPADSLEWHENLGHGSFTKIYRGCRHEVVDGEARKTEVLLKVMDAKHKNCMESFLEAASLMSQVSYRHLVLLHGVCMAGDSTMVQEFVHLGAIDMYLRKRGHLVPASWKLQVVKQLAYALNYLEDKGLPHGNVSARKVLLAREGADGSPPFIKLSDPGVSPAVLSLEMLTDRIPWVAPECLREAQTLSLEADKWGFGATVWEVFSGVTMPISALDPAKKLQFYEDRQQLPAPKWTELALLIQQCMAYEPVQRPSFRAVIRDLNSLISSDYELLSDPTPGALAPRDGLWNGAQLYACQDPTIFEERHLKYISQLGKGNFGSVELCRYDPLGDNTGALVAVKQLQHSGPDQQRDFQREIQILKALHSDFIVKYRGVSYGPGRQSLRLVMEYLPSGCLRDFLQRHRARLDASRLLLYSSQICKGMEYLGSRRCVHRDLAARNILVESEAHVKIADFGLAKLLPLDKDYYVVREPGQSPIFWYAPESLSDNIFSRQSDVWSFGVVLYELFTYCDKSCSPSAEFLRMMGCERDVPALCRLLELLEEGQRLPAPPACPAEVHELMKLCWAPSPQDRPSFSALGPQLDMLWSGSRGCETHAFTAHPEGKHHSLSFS
Chain of JAK2 (O60674 whole entry): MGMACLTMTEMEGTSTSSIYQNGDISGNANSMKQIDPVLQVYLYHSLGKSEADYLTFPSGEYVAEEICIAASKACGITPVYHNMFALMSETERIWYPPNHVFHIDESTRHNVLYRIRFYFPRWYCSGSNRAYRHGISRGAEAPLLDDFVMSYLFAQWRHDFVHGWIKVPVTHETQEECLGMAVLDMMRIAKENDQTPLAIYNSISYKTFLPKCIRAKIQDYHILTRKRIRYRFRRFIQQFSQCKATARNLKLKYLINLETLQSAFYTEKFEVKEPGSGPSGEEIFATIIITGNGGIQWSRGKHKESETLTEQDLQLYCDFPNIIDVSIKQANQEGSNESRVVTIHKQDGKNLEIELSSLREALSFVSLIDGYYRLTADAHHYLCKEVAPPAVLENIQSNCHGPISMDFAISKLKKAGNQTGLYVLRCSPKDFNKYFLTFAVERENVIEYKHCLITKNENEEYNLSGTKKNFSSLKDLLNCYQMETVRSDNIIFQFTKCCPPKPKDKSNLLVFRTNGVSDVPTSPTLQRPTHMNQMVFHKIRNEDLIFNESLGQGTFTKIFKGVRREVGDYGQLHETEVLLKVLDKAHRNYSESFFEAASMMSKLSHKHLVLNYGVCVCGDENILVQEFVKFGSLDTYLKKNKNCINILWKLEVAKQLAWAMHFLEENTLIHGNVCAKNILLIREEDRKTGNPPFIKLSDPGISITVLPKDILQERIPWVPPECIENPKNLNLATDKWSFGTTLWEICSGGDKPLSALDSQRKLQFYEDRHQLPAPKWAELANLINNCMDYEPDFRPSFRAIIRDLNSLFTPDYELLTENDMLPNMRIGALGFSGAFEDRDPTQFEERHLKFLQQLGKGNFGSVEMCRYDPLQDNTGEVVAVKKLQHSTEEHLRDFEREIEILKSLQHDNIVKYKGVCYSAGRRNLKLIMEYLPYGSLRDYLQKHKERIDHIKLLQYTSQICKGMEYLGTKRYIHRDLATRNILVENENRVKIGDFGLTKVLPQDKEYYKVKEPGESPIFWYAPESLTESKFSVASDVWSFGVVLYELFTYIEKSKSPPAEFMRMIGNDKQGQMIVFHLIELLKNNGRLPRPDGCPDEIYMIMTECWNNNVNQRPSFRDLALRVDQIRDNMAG
Chain of Tyk2 (P29597 whole entry): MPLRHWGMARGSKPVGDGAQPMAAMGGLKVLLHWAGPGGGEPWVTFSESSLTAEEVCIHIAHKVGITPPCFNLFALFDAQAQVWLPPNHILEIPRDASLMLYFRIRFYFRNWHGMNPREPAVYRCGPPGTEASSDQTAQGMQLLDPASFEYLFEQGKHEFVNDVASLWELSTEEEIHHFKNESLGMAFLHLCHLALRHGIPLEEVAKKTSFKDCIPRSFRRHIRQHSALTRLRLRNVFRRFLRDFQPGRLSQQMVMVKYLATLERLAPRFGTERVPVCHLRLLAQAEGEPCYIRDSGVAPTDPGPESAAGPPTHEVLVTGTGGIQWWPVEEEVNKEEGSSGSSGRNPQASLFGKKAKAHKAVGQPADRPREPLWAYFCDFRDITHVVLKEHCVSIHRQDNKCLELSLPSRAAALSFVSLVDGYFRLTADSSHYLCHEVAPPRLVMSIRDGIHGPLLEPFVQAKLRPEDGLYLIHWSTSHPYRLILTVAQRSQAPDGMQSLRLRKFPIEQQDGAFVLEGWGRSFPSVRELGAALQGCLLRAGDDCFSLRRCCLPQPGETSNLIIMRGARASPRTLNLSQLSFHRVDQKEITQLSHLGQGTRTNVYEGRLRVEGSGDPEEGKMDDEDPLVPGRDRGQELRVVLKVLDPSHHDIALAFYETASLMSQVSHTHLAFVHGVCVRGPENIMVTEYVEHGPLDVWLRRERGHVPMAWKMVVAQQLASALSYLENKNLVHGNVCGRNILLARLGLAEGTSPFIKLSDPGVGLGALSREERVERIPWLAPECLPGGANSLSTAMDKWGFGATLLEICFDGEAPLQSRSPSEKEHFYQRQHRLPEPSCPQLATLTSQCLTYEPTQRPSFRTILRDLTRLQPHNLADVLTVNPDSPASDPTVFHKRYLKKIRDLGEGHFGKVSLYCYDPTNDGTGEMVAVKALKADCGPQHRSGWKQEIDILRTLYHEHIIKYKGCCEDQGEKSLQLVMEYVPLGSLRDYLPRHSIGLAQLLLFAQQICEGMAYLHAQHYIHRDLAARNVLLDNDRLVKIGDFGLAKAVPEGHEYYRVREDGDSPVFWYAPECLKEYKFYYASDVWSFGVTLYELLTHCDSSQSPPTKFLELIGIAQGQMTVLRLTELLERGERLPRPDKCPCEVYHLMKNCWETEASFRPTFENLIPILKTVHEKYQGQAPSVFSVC

SMILES | JAK 3 (pKi) (JAK3) | HLM Clin μL/min/mg [1] | Solubility at PH 7.4 (μmol) (Aqueous Solubility Assay) | JAK 1 (pKi) (JAK1) | Tall-1 IL2 pSTAT5 (pIC50) [2] | Cacoverap Kp 10^−6 cm/sec (Caco-2 cell monolayer) | Caco Kp 10^−6 cm/sec (Caco-2 cell monolayer) | Solubility in PEG400 (mg/mL) ([3]; PEG400) | Solubility in Diisopropyl adipate (mg/mL) ([3]; diisopropyl adipate) | Solubility in MCT (mg/mL) ([3]; medium chain triglycerides (MCT)) | Solubility in Propylene glycol (mg/mL) ([3]; propylene glycol) | Tyk 2 (pKi) (Tyk2) | JAK 2 (pKi) (JAK2)
CCS(=O)(=O)N1[C@@H]2CCC[C@H]1C[C@H](N(C)c1nc(Nc3cc(C)[nH]n3)cc(C3CCOC3)n1)C2 (stereo partly drawn) [Compound 5, N^2-((1R,3s,5S)-9-(ethylsulfonyl)-9-azabicyclo[3.3.1]nonan-3-yl)-N2-methyl-N4-(5-methyl-1H-pyrazol-3-yl)-6-(tetrahydrofuran-3-yl)pyrimidine-2,4-diamine] | B (B represents a pKi value between 9 and 10 (Ki between 1 nM and 0.1 nM)) | A (A represents a Clint value between 1250 and 3000) | E (E represents a value below 10) | A (A represents a pKi value ≥10 (Ki≤0.1 nM)) | A (A represents a pIC50 value ≥8.0) | A (A represents a value above 35×10^−6 cm/sec) | A (A represents a value above 30×10^−6 cm/sec) | A (A represents a value above 10) | B (B represents a value between 5 and 10) | C (C represents a value below 5) | A (A represents a value above 10) | – | –
CCS(=O)(=O)N1[C@@H]2CCC[C@H]1C[C@H](N(C)c1nc(Nc3cc(C)[nH]n3)cc([C@H]3CCCO3)n1)C2 [Compound 9] | B (B represents a pKi value between 9 and 10 (Ki between 1 nM and 0.1 nM)) | A (A represents a Clint value between 1250 and 3000) | C (C represents a value between 50 and 250) | A (A represents a pKi value ≥10 (Ki≤0.1 nM)) | A (A represents a pIC50 value ≥8.0) | A (A represents a value above 35×10^−6 cm/sec) | A (A represents a value above 30×10^−6 cm/sec) | – | – | – | – | A (A represents a pKi value ≥10 (Ki≤0.1 nM)) | A (A represents a pKi value ≥10 (Ki≤0.1 nM))
CCS(=O)(=O)N1[C@@H]2CCC[C@H]1C[C@H](N(C)c1nc(Nc3cc(C)[nH]n3)cc([C@@H]3CCCO3)n1)C2 [Compound 10] | B (B represents a pKi value between 9 and 10 (Ki between 1 nM and 0.1 nM)) | A (A represents a Clint value between 1250 and 3000) | C (C represents a value between 50 and 250) | A (A represents a pKi value ≥10 (Ki≤0.1 nM)) | A (A represents a pIC50 value ≥8.0) | A (A represents a value above 35×10^−6 cm/sec) | A (A represents a value above 30×10^−6 cm/sec) | – | – | – | – | A (A represents a pKi value ≥10 (Ki≤0.1 nM)) | A (A represents a pKi value ≥10 (Ki≤0.1 nM))
